Assay results taken from patent US20250092066A1, “SUBSTITUTED BICYCLIC HETEROCYCLES AS MALT-1 INHIBITORS” (AURIGENE ONCOLOGY LIMITED, priority 2022, published 2025).

Target: MALT-1 (Isoform1) (Homo sapiens (Human), UniProt Q9UDY8)
Test: Biochemical fluorescent assay of MALT-1 (Isoform1) enzyme inhibition
Settings: recombinant MALT-1 (Isoform1); for inhibition at 1 µM / Percent Inhibition (@ 1 μM): compound at 1 μM; for inhibition at 1 µM: read-out: Percent Inhibition (@ 1 μM); for IC50: 50 μM AC-LRSR-MAC substrate, 240 min
Protocol: The potency of compounds to inhibit MALT-1 (Isoform1) enzyme was tested in a Fluorescent assay using recombinant MALT-1 (Isoform1, aa-840) generated in-house. The assay buffer was 50 mM HEPES (pH 7.5), 100 mM NaCl, 10 mM DTT, 1 mM EDTA, 0.9 M sodium citrate, 0.01% CHAPS. 1.5 nM of MALT-1 enzyme was incubated with various concentrations of test compounds ([…]) (1% DMSO) in the presence of buffer for 30 minutes at 30° C. The protease reaction was initiated by adding 50 μM of AC-LRSR-MAC (Peptide International, USA) substrate and incubated for 240 min. After 240 min incubation, fluorescence emission of the samples at 460 nm was measured at an excitation of 355 nm. The percent inhibition was calculated using the following formula: […]. IC50 values were determined by fitting the dose-response data to sigmoidal curve fitting equation using Graph pad prism software VS.

MALT-1 (Isoform1), sequence (Q9UDY8 whole entry, canonical isoform): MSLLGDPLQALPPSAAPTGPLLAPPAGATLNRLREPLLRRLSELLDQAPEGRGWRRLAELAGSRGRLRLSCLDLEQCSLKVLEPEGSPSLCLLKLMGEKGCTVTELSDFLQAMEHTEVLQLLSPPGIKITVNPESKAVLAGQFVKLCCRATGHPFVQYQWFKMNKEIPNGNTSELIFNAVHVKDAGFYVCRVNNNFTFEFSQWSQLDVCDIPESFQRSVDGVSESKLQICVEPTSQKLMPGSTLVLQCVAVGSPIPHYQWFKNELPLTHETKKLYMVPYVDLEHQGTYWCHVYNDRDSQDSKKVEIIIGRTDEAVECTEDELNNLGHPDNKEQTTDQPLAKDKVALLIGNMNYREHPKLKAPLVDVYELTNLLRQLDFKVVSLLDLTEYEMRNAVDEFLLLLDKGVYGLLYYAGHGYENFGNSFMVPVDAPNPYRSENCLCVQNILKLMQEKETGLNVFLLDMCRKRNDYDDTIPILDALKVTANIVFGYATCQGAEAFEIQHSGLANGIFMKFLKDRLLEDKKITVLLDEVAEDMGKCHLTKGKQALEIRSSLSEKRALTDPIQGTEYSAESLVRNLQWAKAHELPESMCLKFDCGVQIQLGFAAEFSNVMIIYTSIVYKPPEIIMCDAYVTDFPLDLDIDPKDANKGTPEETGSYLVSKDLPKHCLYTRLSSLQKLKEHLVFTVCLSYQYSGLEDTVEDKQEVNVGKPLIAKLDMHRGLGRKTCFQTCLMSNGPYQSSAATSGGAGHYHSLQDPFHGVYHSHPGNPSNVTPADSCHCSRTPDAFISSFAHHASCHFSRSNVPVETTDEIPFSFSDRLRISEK

Compound	inhibition at 1 µM [%]	IC50 [nM]	Percent Inhibition (@ 1 μM) [%]
CO[C@@H](C)c1c(NC(=O)Nc2cc(F)c3nc(C)nn3c2)cnc2cc(C#N)nn12 [Example 47]	54	< 50	–
COCc1nc2c(F)cc(NC(=O)Nc3cnc4cc(Cl)nn4c3[C@H](C)OC)cn2n1 [Example 17]	82	< 50	–
CO[C@@H](C)c1c(NC(=O)Nc2cc(F)c3ncc(C)n3c2)cnc2cc(Cl)nn12 [Example 44]	90	51 to 250	–
COc1cc(NC(=O)Nc2cnc3cc(Cl)nn3c2[C@H](C)OC)cn2nc(C)nc12 [Example 10]	38	> 250	–
Cc1nc2c(F)cc(NC(=O)Nc3cnc4cc(Cl)nn4c3C3(C(F)(F)F)CC3)cn2n1 [Example 23]	98	> 250	–
CO[C@@H](C)c1c(NC(=O)Nc2cc(Cl)c3nccn3c2)cnc2cc(Cl)nn12 [Example 40]	96	51 to 250	–
CO[C@@H](C)c1c(NC(=O)Nc2cc(C#N)c3nc(C)nn3c2)cnc2cc(Cl)nn12 [Example 14]	99	< 50	–
COC(c1c(NC(=O)Nc2cc(F)c3nc(C)nn3c2)cnc2cc(Cl)nn12)C(C)C (single isomer, unassigned) [Example 31b, 1-(2-chloro-7-(1-methoxy-2-methylpropyl)pyrazolo[1,5-a]pyrimidin-6-yl)-3-(8-fluoro-2-methyl-[1,2,4]triazolo[1,5-a]pyridin-6-yl)urea]	–	< 50	99
CO[C@@H](C)c1c(NC(=O)Nc2cc(Cl)c3nc(C(C)C)nn3c2)cnc2cc(Cl)nn12 [Example 7]	96	< 50	–
COC(C)c1c(NC(=O)Nc2cc(Cl)c3nc(C)nn3c2)cnc(C)c1Br (single isomer, unassigned) [Example 35a, 1-(5-bromo-4-(1-methoxyethyl)-6-methylpyridin-3-yl)-3-(8-chloro-2-methyl-[1,2,4]triazolo[1,5-a]pyridin-6-yl)urea]	–	51 to 250	88
COC(c1c(NC(=O)Nc2cc(F)c3nc(C)nn3c2)cnc2cc(Cl)nn12)C(C)C (single isomer, unassigned) [Example 31a, 1-(2-chloro-7-(1-methoxy-2-methylpropyl)pyrazolo[1,5-a]pyrimidin-6-yl)-3-(8-fluoro-2-methyl-[1,2,4]triazolo[1,5-a]pyridin-6-yl)urea]	100	< 50	–
CO[C@@H](C)c1c(NC(=O)Nc2cc(F)c3nc(C)nn3c2)cnc2cc(Br)nn12 [Example 25]	95	< 50	–
CO[C@@H](C)c1c(NC(=O)Nc2cc(F)c3ncnn3c2)cnc2cc(C(F)(F)F)nn12 [Example 27]	87	51 to 250	–
COC(C)c1c(NC(=O)Nc2cc(Cl)c3nc(C)nn3c2)cnc(C)c1Br (racemic) [Example 35, 1-(5-bromo-4-(1-methoxyethyl)-6-methylpyridin-3-yl)-3-(8-chloro-2-methyl-[1,2,4]triazolo[1,5-a]pyridin-6-yl)urea]	72	> 250	–
COCc1c(NC(=O)Nc2cc(F)c3nc(C)nn3c2)cnc2cc(Cl)nn12 [Example 22]	62	> 250	–
CO[C@@H](C)c1c(NC(=O)Nc2cc(Cl)c3nc(C(F)(F)F)nn3c2)cnc2cc(Cl)nn12 [Example 8]	94	< 50	–
CO[C@@H](C)c1c(NC(=O)Nc2cc(Br)c3ncnn3c2)cnc2cc(Cl)nn12 [Example 3]	96	< 50	–

Compound	inhibition at 1 µM [%]	IC50 [nM]	Percent Inhibition (@ 1 μM) [%]
CO[C@@H](C)c1c(NC(=O)Nc2cc(Cl)c3nc(C)nn3c2)cnc2cc(Cl)nn12 [Example 5]	98	< 50	–
Cc1nc2c(C3CC3)c(NC(=O)Nc3cc(Cl)c4ncnn4c3)cnc2s1 [Example 38, 1-(8-chloro-[1,2,4]triazolo[1,5-a]pyridin-6-yl)-3-(7-cyclopropyl-2-methylthiazolo[5,4b]pyridin-6-yl)urea]	62	> 250	–
COC(C)c1c(NC(=O)Nc2cc(F)c3nc(C)nn3c2)cnc(C)c1Cl (centres unmarked) [Example 37]	48	> 250	–
CO[C@@H](C)c1c(NC(=O)Nc2ccc3nncn3c2)cnc2cc(Cl)nn12 [Example 20]	16	> 250	–
CO[C@@H](C)c1c(NC(=O)Nc2cc(F)c3ncnn3c2)cnc2cc(C)nn12 [Example 28]	84	> 250	–
COC(C)c1c(NC(=O)Nc2cc(Cl)c3nc(C)nn3c2)cnc(C)c1Br (single isomer, unassigned) [Example 35b, 1-(5-bromo-4-(1-methoxyethyl)-6-methylpyridin-3-yl)-3-(8-chloro-2-methyl-[1,2,4]triazolo[1,5-a]pyridin-6-yl)urea]	–	> 250	8
COC(c1c(NC(=O)Nc2cc(F)c3nc(C)nn3c2)cnc2cc(Cl)nn12)C1CC1 (racemic) [Example 32, 1-(2-chloro-7-(cyclopropyl(methoxy)methyl)pyrazolo[1,5-a]pyrimidin-6-yl)-3-(8-fluoro-2-methyl-[1,2,4]triazolo[1,5-a]pyridin-6-yl)urea]	100	< 50	–
CO[C@@H](C)c1c(NC(=O)Nc2cc(Cl)c3nc(Cl)nn3c2)cnc2cc(Cl)nn12 [Example 30]	96	< 50	–
CO[C@@H](C)c1c(NC(=O)Nc2cc(F)c3nc(C)nn3c2)cnc2cc(C3CC3)nn12 [Example 46]	40	< 50	–
CO[C@@H](C)c1c(NC(=O)Nc2cc(F)c3nc(C)nn3c2)cnc2cc(Cl)nn12 [Example 9]	92	< 50	–
CO[C@@H](C)c1c(NC(=O)Nc2cc(C(F)(F)F)c3nc(C)nn3c2)cnc2cc(Cl)nn12 [Example 11]	98	< 50	–
CO[C@@H](C)c1c(NC(=O)Nc2cn3nc(C)nc3c(Br)c2C)cnc2cc(Cl)nn12 [Example 19]	17	> 250	–
COC(C)c1c(NC(=O)Nc2cc(F)c3nc(C)nn3c2)cnc(C)c1Br (centres unmarked) [Example 36]	69	> 250	–
CO[C@@H](C)c1c(NC(=O)Nc2cc(Cl)c3ncnn3c2)cnc2cc(Cl)nn12 [Example 2]	97	< 50	–
CO[C@@H](C)c1c(NC(=O)Nc2cc(F)c3nc(C)nn3c2)cnc2cc(OC(F)F)nn12 [Example 26]	71	> 250	–
COC(c1c(NC(=O)Nc2cc(F)c3nc(C)nn3c2)cnc2cc(Cl)nn12)C1CC1 (single isomer, unassigned) [Example 32a, 1-(2-chloro-7-(cyclopropyl(methoxy)methyl)pyrazolo[1,5-a]pyrimidin-6-yl)-3-(8-fluoro-2-methyl-[1,2,4]triazolo[1,5-a]pyridin-6-yl)urea]	96	51 to 250	–
CO[C@@H](C)c1c(NC(=O)Nc2cc(F)c3nc(CN(C)C)nn3c2)cnc2cc(Cl)nn12 [Example 29]	83	51 to 250	–
